The values below come from patent publication US9603878B2, “Probiotic and prebiotic compositions, and methods of use thereof for treatment and prevention of graft versus host disease” (Evelo Biosciences, Inc., priority 2014, dated 2017).

One data set deals with tumors. To be noted: oral administration; anti-PD-1 / anti-CTLA-4 antibody therapy; cited from earlier work.
Data set [1] deals with Tregs in the large intestine. To be noted: germ-free mice and vancomycin-treated conventional mice; cited from earlier work.
The next data set relates to mice with GVHD. The data set can be described thus: Xylose in drinking water in experimental GVHD model after BMT. In kind it is in vivo, mouse.
The test system of another data set is normal mice. As to the kind of experiment: Mouse study: gut microbiome after xylose treatment. In kind it is in vivo.
In data set [2] the test system is healthy, adult volunteers. As to the kind of experiment: Normal human volunteer study of D-xylose: CRP, serum cytokines, T-cell markers. In kind it is in vivo. From the text: Blood was collected at pre-specified pre- and post-ingestion time points to evaluate C-reactive protein (CRP), serum cytokines (tumor necrosis factor alpha [TNF-α], interleukin [IL]-2, IL-6, interferon gamma [IFN-γ], and IL-10), and T-cell markers CD3, CD4, CD8, CD25, and FOXP3. Plasma was also stored and may be tested for biomarkers and/or metabolic markers for up to 7 years.
Summary statistics (n, mean, standard deviation, median, minimum, and maximum) were presented for serum concentrations of CRP, flow cytometry T-cell markers (CD3, CD4, CD8, CD25, and FOXP3), and cytokines (TNF-α, IL-2, IL-6, IFN-γ, and IL-10) as per their nominal time points.

Data set [3] has as its system healthy, adult volunteers. To be noted: human, in vivo. As for the experimental part:
D-xylose is a carbon source generally preferred by anaerobic bacteria. […] A parallel, double-blind, 5 cohort escalation food safety study was conducted to examine D-xylose in normal human volunteers. The study was a double-blind, single-center, parallel group study designed to evaluate the tolerability and potential microbiome changes induced by ingestion of D-xylose at 5 different amounts in healthy, adult volunteers enrolled at 1 study center in the United States (US).
Subjects were screened for eligibility within 21 days prior to the first planned ingestion of study sweetener on Day 1 (Baseline). […]
Subjects returned to the study center weekly on Days 8, 15, 22, and 28 for ingestion, tolerability, and compliance evaluations. Safety was evaluated on a continual basis through adverse events (AE) monitoring, clinical laboratory measurements, vital sign monitoring, physical examinations, electrocardiograms (ECGs), telephone follow-up, and electronic subject ingestion diaries. Stool was collected pre-ingestion and at pre-specified time points, and post-ingestion samples were evaluated for changes in the gut microbiome compared with Baseline for all subjects. […]
Safety was evaluated on a continual basis through AE monitoring, clinical laboratory measurements, vital sign monitoring, physical examinations, ECGs, telephone follow-up, and electronic subject ingestion diaries. […]

The subject of a further data set is gut microbiome. As to the kind of experiment: Normal human volunteer study of D-xylose: changes in the gut microbiome (stool 16S). In kind it is in vivo. To be noted: for alpha diversity of the gut microbiome: over time on study.
The subject of the next data set is Lactobacillus johnsonii. The data set can be described thus: Sugar fermentation/growth in media lacking glucose (pH and optical density).
A further data set has as its system blautia. The data set is described as above.
Another data set has as its system C57B1/6 female mice. To be noted: mouse, in vivo.

Protocol for C57B1/6 female mice: The possibility that modification of the microbiome in a given physical location may influence the microbiome at other sites in the body (distal augmentation) was investigated. Seven week old C57B1/6 female mice were acclimatized for 7 days prior to the start of the study by daily handling and shuffling between cages. All mice were housed at three mice per cage in individually vented cages (Thoren, Hazleton, Pa.). At day 0, baseline fresh fecal pellets, and vaginal lavages with 100 μL of sterile double-distilled water were collected and immediately frozen at −80° C. for microbiome analysis. […] Water alone is not expected to influence the microbiome and acted as a negative control. […] The impact of oral vancomycin is therefore expected to be limited to the gastrointestinal tract such that microbiome changes elsewhere in the body (e.g. vagina) would be attributable to distal augmentation. At day 6, fresh fecal pellets and vaginal lavages with 100 μL of sterile double-distilled water were collected and immediately stored at −80° C. for microbiome analysis.
Isolation and sequencing of microbial DNA from the stool and vaginal samples was performed by DNA Genotek (Ottawa, ON, Canada). The V3-V4 region of the 16S ribosomal subunit was amplified with custom PCR primers and sequenced on an Illumina MiSeq to a minimum acceptable read depth of 25,000 sequences per sample. […]

For Bacteroides, the “responsiveness to checkpoint inhibitor therapy in cancer” value with tumors was “increases the responsiveness”.
`CC(=O)O` [acetate]: the “numbers of Tregs in the large intestine” value in data set [1] was “restored normal numbers of Tregs in the large intestine”.
Bifidobacterium: in the data set on tumors, the “responsiveness to checkpoint inhibitor therapy in cancer” value is listed as “increases the responsiveness”.
As for `O=C[C@H](O)[C@@H](O)[C@H](O)CO` [xylose, D-xylose], the “survival of mice with GVHD” value in the data set with mice with GVHD (long-term administration) is recorded as “led to improved survival of mice with GVHD”. For the same compound, the “Blautia in the intestinal flora” value in the data set on mice with GVHD (xylose in drinking water, day 14 after BMT) is listed as “lead to an expansion of Blautia in the intestinal flora”. For the same compound, the “shifts in the gut microbiome” value in the data set on normal mice is given as “did not cause major shifts in the gut microbiome but showed some differences at the family level”. For the same compound, the “total T-cells and T-cell subsets over time” value in data set [2] (any ingestion amount) is recorded as “No consistent or clinically meaningful changes over time in total T-cells or any T-cell subsets”. Moreover, the “subjects with normal serum CRP at Baseline and at least 1 post-ingestion CRP value >2.9 mg/L” value in data set [2] (cohorts combined) is 8.3%. In addition, the “serum cytokines (TNF-α, IL-2, IL-6, IFN-γ, IL-10) over time” value in data set [2] (most data points BLQ) is on record as “did not indicate any consistent or clinically meaningful changes over time”. For the same compound, in data set [3], the “SAEs, severe AEs, deaths” value was “No SAEs, severe AEs, or subject deaths were reported”. Also, the “gut microbiome community composition over time” value with gut microbiome (regardless of ingestion amount) is listed as “no significant changes in community composition”. Further, the “alpha diversity of the gut microbiome” value in the data set on gut microbiome (regardless of ingestion amount) is “no major shifts in the microbiome alpha diversity”; with gut microbiome (regardless of ingestion amount, listed as D-xylose), “no apparent significant impact on the intra-sample alpha diversity of the gut microbiome”. Also, the “Chao diversity index over time” value in the data set on gut microbiome (xylose TID at 1, 2, 8, 12.5 or 15 grams) is reported as “overall decrease in the Chao diversity index over time”. Besides, the “augmentation / fermentation by lactobacillus” value with Lactobacillus johnsonii is “not lactobacillus”. In addition, the “augmentation / fermentation by blautia” value in the data set with blautia is “specifically augments blautia”.
For `CN[C@H](CC(C)C)C(=O)N[C@H]1C(=O)N[C@@H](CC(N)=O)C(=O)N[C@H]2C(=O)N[C@H]3C(=O)N[C@H](C(=O)N[C@H](C(=O)O)c4cc(O)cc(O)c4-c4cc3ccc4O)[C@H](O)c3ccc(c(Cl)c3)Oc3cc2cc(c3O[C@@H]2O[C@H](CO)[C@@H](O)[C@H](O)[C@H]2O[C@H]2C[C@](C)(N)[C@H](O)[C@H](C)O2)Oc2ccc(cc2Cl)[C@H]1O` [vancomycin], in the data set with C57B1/6 female mice, the “impact on the microbiome of the gut (PCA, family level)” value is on record as “strong impact on the microbiome of the gut”; the “impact on the vaginal microbiome (PCA, family level)” value was “showed an overall difference between the PBS and oral vancomycin groups”.
Turning to `C[C@H](O)[C@H](O)[C@@H](O)[C@@H](O)C=O` [rhamnose], in the data set on Lactobacillus johnsonii, the “augmentation / fermentation by lactobacillus” value is “not lactobacillus”. For the same compound, the “augmentation / fermentation by blautia” value in the data set with blautia was “specifically augments blautia”.
Turning to `CCC(=O)O` [propionate], the “numbers of Tregs in the large intestine” value in data set [1] is on record as “restored normal numbers of Tregs in the large intestine”.
